# Results reported in article PMC12828229, “Aspergillus fumigatus PolX1 is an early ancestor of vertebrate terminal deoxynucleotidyl transferases” (Nucleic Acids Research, 2026).
# Target: T1, AfPolX1 (Aspergillus fumigatus, UniProt Q4X1T5)
# T1 construct: gene AFUA_2G08840; catalytic core (8 kDa, fingers, palm, thumb), residues 297-704 in methods, 298-704 in results; codon-optimised in pET28a(+), E. coli Rosetta 2 (DE3); N-terminal His6 tag cut off with TEV protease
# T1 sequence (Q4X1T5 297-704): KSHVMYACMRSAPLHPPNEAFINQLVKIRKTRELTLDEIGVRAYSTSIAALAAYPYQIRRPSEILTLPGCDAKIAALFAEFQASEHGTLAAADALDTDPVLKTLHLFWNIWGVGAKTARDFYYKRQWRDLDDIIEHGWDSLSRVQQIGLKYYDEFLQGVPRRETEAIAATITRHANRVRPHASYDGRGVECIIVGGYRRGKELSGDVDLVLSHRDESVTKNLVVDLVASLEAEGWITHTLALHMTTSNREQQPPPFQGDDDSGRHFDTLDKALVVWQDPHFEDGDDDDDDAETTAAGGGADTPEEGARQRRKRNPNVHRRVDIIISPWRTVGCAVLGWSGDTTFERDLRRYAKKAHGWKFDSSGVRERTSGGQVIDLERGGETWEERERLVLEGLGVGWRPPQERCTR
# Assay: single-turnover gap-filling primer extension, denaturing gel
# Type: biochemical
# Conditions: 1-nt gapped 5'-phosphate DNA (D1) templating dT, 150 nM; 4 uM enzyme; 1 mM dATP; 10 mM Mg acetate; pH 7.5; 37 °C
structure (smiles),measurement,value
Nc1ncnc2c1ncn2[C@H]1C[C@H](O)[C@@H](COP(=O)(O)OP(=O)(O)OP(=O)(O)O)O1 [dATP],kobs,Correct nucleotide incorporation proceeded at comparable rates for all the substrates
